Experimental findings from US9346811B2, “6,7-dihydro-pyrazolo[1,5-a]pyrazin-4-ylamine derivatives useful as inhibitors of beta-secretase (BACE)” (JANSSEN PHARMACEUTICA NV, priority 2011, dated 2016) are described below.

For assay [1], the system named is Aβtotal produced and secreted into the medium of human neuroblastoma SKNBE2 cells. Briefly: Cellular αlisa assay in SKNBE2 cells, Aβtotal. The conditions noted are these: for IC50: Homo sapiens, SKNBE2, 18 h, read-out: Cellular αlisa assay in SKNBE2 cells Aβtotal pIC50 (converted). In kind it is cell-based. Here is the method:
(§1) Cellular αlisa Assay in SKNBE2 Cells
(§2) In two αlisa assays the levels of Aβtotal and Aβ42 produced and secreted into the medium of human neuroblastoma SKNBE2 cells are quantified. The assay is based on the human neuroblastoma SKNBE2 expressing the wild type Amyloid Precursor Protein (hAPP695). The compounds are diluted and added to these cells, incubated for 18 hours and then measurements of Aβ42 and Aβtotal are taken. Aβtotal and Aβ42 are measured by sandwich αlisa. αlisa is a sandwich assay using biotinylated antibody AbN/25 attached to streptavidin coated beads and antibody Ab4G8 or cAb42/26 conjugated acceptor beads for the detection of Aβtotal and Aβ42 respectively. In the presence of Aβtotal or Aβ42, the beads come into close proximity. The excitation of the Donor beads provokes the release of singlet oxygen molecules that triggers a cascade of energy transfer in the Acceptor beads, resulting in light emission. Light emission is measured after 1 hour incubation (excitation at […] and emission at 615 nm).
(§3) A best-fit curve is fitted by a minimum sum of squares method to the plot of % Controlmin versus compound concentration.

Assay [2] has as its system Aβ42 produced and secreted into the medium of human neuroblastoma SKNBE2 cells. Briefly: Cellular αlisa assay in SKNBE2 cells, Aβ42. In kind it is cell-based. The conditions noted are these: for IC50: Homo sapiens, SKNBE2, 18 h, read-out: Cellular αlisa assay in SKNBE2 cells Aβ42 pIC50 (converted). On the procedure:
as §1, §2, §3

Assay [3] deals with recombinant BACE1 protein (Homo sapiens, UniProt P56817). Briefly: Biochemical FRET based assay. The conditions noted are these: recombinant BACE1 1 μg/ml, 120 min, pH 5.0; for IC50: read-out: Biochemical FRET based assay pIC50 (converted). The text has this:
Biochemical FRET Based Assay
This assay is a Fluorescence Resonance Energy Transfer Assay (FRET) based assay. The substrate for this assay is an APP derived 13 amino acids peptide that contains the ‘Swedish’ Lys-Met/Asn-Leu mutation of the amyloid precursor protein (APP) β-secretase cleavage site. This substrate also contains two fluorophores: (7-methoxycoumarin-4-yl)acetic acid (Mca) is a fluorescent donor with excitation wavelength at 320 nm and emission at 405 nm and 2,4-Dinitrophenyl (Dnp) is a proprietary quencher acceptor. […] Upon cleavage by BACE1, the fluorophore Mca is separated from the quenching group Dnp, restoring the full fluorescence yield of the donor. The increase in fluorescence is linearly related to the rate of proteolysis (Koike H et al. J. Biochem. 1999, 126, 235-242). Briefly in a 384-well format recombinant BACE1 protein in a final concentration of 1 μg/ml is incubated for 120 min at room temperature with 10 μm substrate in incubation buffer (40 mM Citrate buffer pH 5.0, 0.04% PEG, 4% DMSO) in the absence or presence of compound. Next the amount of proteolysis is directly measured by fluorescence measurement at T=0 and T=120 (excitation at 320 nm and emission at 405 nm).

Where [4] appears, read: SKNBE2 cells expressing hAPP695, 18 hours incubation.

SMILES strings stand for the structures. Counter-ions that a name gives are not always drawn. Like-named read-outs stand apart in the source and are kept apart here.

recombinant BACE1 protein, sequence (P56817 46-501): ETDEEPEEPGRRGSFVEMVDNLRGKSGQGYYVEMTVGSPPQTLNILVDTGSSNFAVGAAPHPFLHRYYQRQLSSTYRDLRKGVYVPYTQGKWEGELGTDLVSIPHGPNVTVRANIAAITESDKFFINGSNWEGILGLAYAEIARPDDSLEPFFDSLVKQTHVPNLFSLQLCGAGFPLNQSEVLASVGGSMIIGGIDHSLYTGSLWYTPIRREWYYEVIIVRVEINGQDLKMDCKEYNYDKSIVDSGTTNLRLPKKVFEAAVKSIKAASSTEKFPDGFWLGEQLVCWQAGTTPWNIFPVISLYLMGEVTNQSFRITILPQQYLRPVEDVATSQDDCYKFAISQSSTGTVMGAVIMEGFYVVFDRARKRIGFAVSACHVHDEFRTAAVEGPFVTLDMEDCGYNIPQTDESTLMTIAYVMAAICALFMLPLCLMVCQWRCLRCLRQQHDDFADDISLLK

Consider `CC1(c2cccc(NC(=O)c3ccc(C#N)cn3)c2)Cn2nccc2C(N)=N1` (racemic) [Compound 6, rac-5-cyano-pyridine-2-carboxylic acid [3-(4-amino-6-methyl-6,7-dihydro-pyrazolo[1,5-a]pyrazin-6-yl)-phenyl]-amide], for which the IC50 is 5.13 nM in assay [1] (setting [4]) and 5.75 nM in assay [2] (setting [4]).

For `Cc1nn2c(c1F)C(N)=NC(C)(c1cc(NC(=O)c3ccn(C(F)F)n3)ccc1F)C2` (stereo not drawn) [Compound 42], the “Cellular αlisa assay in SKNBE2 cells Aβtotal pIC50” value in assay [1] (setting [4]) turned out to be 7.99. Moreover, in assay [2] (setting [4]), the “Cellular αlisa assay in SKNBE2 cells Aβ42 pIC50” value came out at 8.02. For the same compound, the “Biochemical FRET based assay pIC50” value in assay [3] was 7.12.

For `CC1(c2cccc(NC(=O)c3ncc(Cl)cc3Cl)c2)Cn2nccc2C(N)=N1` (single isomer, unassigned) [Compound 5, (S*)-3,5-dichloro-pyridine-2-carboxylic acid [3-(4-amino-6-methyl-6,7-dihydro-pyrazolo[1,5-a]pyrazin-6-yl)-phenyl]-amide], the “Cellular αlisa assay in SKNBE2 cells Aβtotal pIC50” value in assay [1] (setting [4]) was 8.55. Further, the “Cellular αlisa assay in SKNBE2 cells Aβ42 pIC50” value in assay [2] (setting [4]) stood at 8.59. In assay [3], the IC50 is 37.2 nM.

On to `C[C@@]1(c2cccc(-c3cncc(Cl)c3)c2)Cn2nccc2C(N)=N1` [Compound 1, (R)-6-[3-(5-chloro-pyridin-3-yl)-phenyl]-6-methyl-6,7-dihydro-pyrazolo[1,5-a]pyrazin-4-ylamine trifluoroacetate salt], for which the IC50 is 100 nM in assay [1], 93.3 nM in assay [2] and 525 nM in assay [3].

In the case of `CC1(c2cccc(NC(=O)c3ncc(Cl)cc3Cl)c2)Cn2nc(C(F)(F)F)cc2C(N)=N1` (racemic) [Compound 10, rac-3,5-dichloro-pyridine-2-carboxylic acid [3-(4-amino-6-methyl-2-trifluoromethyl-6,7-dihydro-pyrazolo[1,5-a]pyrazin-6-yl)-phenyl]-amide], the IC50 in assay [1] (setting [4]) is 15.5 nM; in assay [2] (setting [4]) it was 16.6 nM; in assay [3], 63.1 nM.

For `CC1(c2cc(NC(=O)c3ccc(Cl)cn3)ccc2F)Cn2nc(C(F)F)cc2C(N)=N1` (stereo not drawn) [Compound 39], the “Cellular αlisa assay in SKNBE2 cells Aβtotal pIC50” value in assay [1] (setting [4]) is on record as 8.59. Moreover, in assay [2] (setting [4]), the “Cellular αlisa assay in SKNBE2 cells Aβ42 pIC50” value stood at 8.61. Also, in assay [3], the “Biochemical FRET based assay pIC50” value was 7.39.

As for `CC1(c2cc(NC(=O)c3ccc(F)cn3)ccc2F)Cn2ncc(Cl)c2C(N)=N1` (stereo not drawn) [Compound 38], the “Cellular αlisa assay in SKNBE2 cells Aβtotal pIC50” value in assay [1] (setting [4]) is recorded as 6.22. For the same compound, the “Cellular αlisa assay in SKNBE2 cells Aβ42 pIC50” value in assay [2] (setting [4]) amounted to 6.16. For the same compound, the “Biochemical FRET based assay pIC50” value in assay [3] is 6.03.

Regarding `COc1cnc(C(=O)Nc2ccc(F)c(C3(C)Cn4ncc(Cl)c4C(N)=N3)c2)cn1` (stereo not drawn) [Compound 37], the “Cellular αlisa assay in SKNBE2 cells Aβtotal pIC50” value in assay [1] (setting [4]) is listed as 6.07. In addition, the “Cellular αlisa assay in SKNBE2 cells Aβ42 pIC50” value in assay [2] (setting [4]) was found to be 6.03. Besides, the “Biochemical FRET based assay pIC50” value in assay [3] worked out at 5.86.

As for `CC1(c2cc(NC(=O)c3ncc(Cl)cc3Cl)ccc2F)Cn2nccc2C(N)=N1` (single isomer, unassigned) [Compound 16, (S*)-3,5-dichloro-pyridine-2-carboxylic acid [3-(4-amino-6-methyl-6,7-dihydro-pyrazolo[1,5-a]pyrazin-6-yl)-4-fluoro-phenyl]-amide], the “Cellular αlisa assay in SKNBE2 cells Aβtotal pIC50” value in assay [1] (setting [4]) was 7.74. Moreover, the “Cellular αlisa assay in SKNBE2 cells Aβ42 pIC50” value in assay [2] (setting [4]) stood at 7.66. Moreover, in assay [3], the IC50 was 1050 nM.

For the compound `Cc1nc(C(=O)Nc2ccc(F)c(C3(C)Cn4ncc(F)c4C(N)=N3)c2)co1` (stereo not drawn) [Compound 34], in assay [1] (setting [4]), the “Cellular αlisa assay in SKNBE2 cells Aβtotal pIC50” value was determined as 7.78. Besides, the “Cellular αlisa assay in SKNBE2 cells Aβ42 pIC50” value in assay [2] (setting [4]) is on record as 7.83. Moreover, in assay [3], the “Biochemical FRET based assay pIC50” value worked out at 7.23.

On to `NC1=NC(c2cc(NC(=O)c3ccc(F)cn3)ccc2F)(C(F)F)Cn2nccc21` (single isomer, unassigned) [Compound 22, (R*)-5-fluoro-pyridine-2-carboxylic acid [3-(4-amino-6-difluoromethyl-6,7-dihydro-pyrazolo[1,5-a]pyrazin-6-yl)-4-fluoro-phenyl]-amide], for which the “Cellular αlisa assay in SKNBE2 cells Aβtotal pIC50” value in assay [1] (setting [4]) stood at 7.21. The “Cellular αlisa assay in SKNBE2 cells Aβ42 pIC50” value in assay [2] (setting [4]) came to 7.17. Also, the IC50 in assay [3] is 25.7 nM.

For `CC1(c2cccc(NC(=O)c3ncc(Cl)cc3Cl)c2)Cn2nccc2C(N)=N1` (single isomer, unassigned) [Compound 4, (R*)-3,5-dichloro-pyridine-2-carboxylic acid [3-(4-amino-6-methyl-6,7-dihydro-pyrazolo[1,5-a]pyrazin-6-yl)-phenyl]-amide], the “Cellular αlisa assay in SKNBE2 cells Aβtotal pIC50” value in assay [1] (setting [4]) is 5.84. Also, the “Cellular αlisa assay in SKNBE2 cells Aβ42 pIC50” value in assay [2] (setting [4]) came out at 5.84. The IC50 in assay [3] was 21400 nM.

Take `COc1cnc(C(=O)Nc2ccc(F)c([C@]3(C)Cn4ncc(F)c4C(N)=N3)c2)cn1` [Compound 13, (R)-5-methoxy-pyrazine-2-carboxylic acid [3-(4-amino-3-fluoro-6-methyl-6,7-dihydro-pyrazolo[1,5-a]pyrazin-6-yl)-4-fluoro-phenyl]-amide]: the IC50 was 5.5 nM in assay [1] (setting [4]), 6.76 nM in assay [2] (setting [4]) and 72.4 nM in assay [3].

As to `COc1cnc(C(=O)Nc2ccc(F)c(C3(C(F)F)Cn4nccc4C(N)=N3)c2)cn1` (racemic) [Compound 17, rac-5-methoxy-pyrazine-2-carboxylic acid [3-(4-amino-6-difluoromethyl-6,7-dihydro-pyrazolo[1,5-a]pyrazin-6-yl)-4-fluoro-phenyl]-amide], the IC50 in assay [1] (setting [4]) is 33.1 nM; in assay [2] (setting [4]), 39.8 nM; in assay [3], 57.5 nM.

Regarding `COc1cnc(C(=O)Nc2ccc(F)c(C3(C(F)F)Cn4nccc4C(N)=N3)c2)cn1` (single isomer, unassigned) [Compound 18, (R*)-5-methoxy-pyrazine-2-carboxylic acid [3-(4-amino-6-difluoromethyl-6,7-dihydro-pyrazolo[1,5-a]pyrazin-6-yl)-4-fluoro-phenyl]-amide], the “Cellular αlisa assay in SKNBE2 cells Aβtotal pIC50” value in assay [1] (setting [4]) is 7.54. Besides, in assay [2] (setting [4]), the “Cellular αlisa assay in SKNBE2 cells Aβ42 pIC50” value was determined as 7.52. The IC50 in assay [3] was 22.4 nM.

Regarding `NC1=NC(c2cc(NC(=O)c3ccc(F)cn3)ccc2F)(C(F)F)Cn2nccc21` (racemic) [Compound 20, rac-5-fluoro-pyridine-2-carboxylic acid [3-(4-amino-6-difluoromethyl-6,7-dihydro-pyrazolo[1,5-a]pyrazin-6-yl)-4-fluoro-phenyl]-amide], the IC50 was 66.1 nM in assay [1] (setting [4]), 85.1 nM in assay [2] (setting [4]) and 66.1 nM in assay [3].

Regarding `C[C@@]1(c2cc(NC(=O)c3cnn(C(F)F)c3)ccc2F)Cn2nc(C#N)cc2C(N)=N1` [Compound 25, (R)-1-difluoromethyl-1H-pyrazole-4-carboxylic acid [3-(4-amino-2-cyano-6-methyl-6,7-dihydro-pyrazolo[1,5-a]pyrazin-6-yl)-4-fluoro-phenyl]-amide], the figures for the IC50 in assay [1] (setting [4]) and in assay [2] (setting [4]) were 1.35 nM and 1.32 nM, respectively.

In the case of `CC1(c2cccc(NC(=O)c3ccc(C#N)cn3)c2)Cn2nccc2C(N)=N1` (single isomer, unassigned) [Compound 8, (S*)-5-cyano-pyridine-2-carboxylic acid [3-(4-amino-6-methyl-6,7-dihydro-pyrazolo[1,5-a]pyrazin-6-yl)-phenyl]-amide], the “Cellular αlisa assay in SKNBE2 cells Aβtotal pIC50” value in assay [1] (setting [4]) was 6.13. For the same compound, in assay [2] (setting [4]), the “Cellular αlisa assay in SKNBE2 cells Aβ42 pIC50” value was found to be 6.13.
